Assay results from PMC4117758 (2014).

Tests used:
[1] = system: Hum45 (DNA, G4) GGGTTAGGGTTAGGGTTAGGGTTAGGGTTAGGGTTAGGGTTAGGG; test: UV melting at 295 nm; settings: 50 mM KCl; 10 mM Tris-HCl pH 7.4, 1 mM Na2EDTA, no PEG; 5 μM compound, 5 μM DNA; derived from two Tm
[2] = system: LD (DNA, duplex) GCGCAATTGCGC; test: UV-vis absorption; settings: 150 mM KCl; 10 mM Tris-HCl pH 7.4, 1 mM Na2EDTA, 400 ml/l PEG 200; 20 μM DNA
[3] = system: Hum63 (DNA, G4) GGGTTAGGGTTAGGGTTAGGGTTAGGGTTAGGGTTAGGGTTAGGGTTAGGGTTAGGGTTAGGG; test: UV-vis absorption titration, Scatchard; settings: 150 mM KCl; 10 mM Tris-HCl pH 7.4, 1 mM Na2EDTA, 400 ml/l PEG 200; 3 μM compound; n = 0.52
[4] = system: ssDNA1 (DNA, single strand) GAGCTCTCGAAAGAGCTCCGATTA; test: UV-vis absorption; settings: 150 mM KCl; 10 mM Tris-HCl pH 7.4, 1 mM Na2EDTA, 400 ml/l PEG 200; 20 μM DNA
[5] = system: Hum57-M2 (DNA, G4) GGGTTAGGGTTAGGGTTAGGGTTGAGTGTAGGGTTAGGGTTAGGGTTAGGGTGTGAG; test: UV-vis absorption titration, Scatchard; settings: 150 mM KCl; 10 mM Tris-HCl pH 7.4, 1 mM Na2EDTA, 400 ml/l PEG 200; 3 μM compound; n = 0.47
[6] = system: Hum51-M1 (DNA, G4) GGGTTAGGGTTAGGGTTAGGGTTAGGGTTAGGGTTAGGGTTAGGGTGTGAG; test: UV-vis absorption titration, Scatchard; settings: 150 mM KCl; 10 mM Tris-HCl pH 7.4, 1 mM Na2EDTA, 400 ml/l PEG 200; 3 μM compound; n = 0.45
[7] = system: GC (DNA, duplex) GCGCGCGCGCGC; test: UV-vis absorption; settings: 150 mM KCl; 10 mM Tris-HCl pH 7.4, 1 mM Na2EDTA, 400 ml/l PEG 200; 20 μM DNA
[8] = system: Hum57-M1 (DNA, G4) GGGTTAGGGTTAGGGTTAGGGTTAGGGTTAGGGTTAGGGTTAGGGTGTGAGTGTGAG; test: UV-vis absorption titration, Scatchard; settings: 150 mM KCl; 10 mM Tris-HCl pH 7.4, 1 mM Na2EDTA, 400 ml/l PEG 200; 3 μM compound; n = 0.48
[9] = system: Hum45 (DNA, G4) GGGTTAGGGTTAGGGTTAGGGTTAGGGTTAGGGTTAGGGTTAGGG; test: UV-vis absorption titration, Scatchard; settings: 150 mM KCl; 10 mM Tris-HCl pH 7.4, 1 mM Na2EDTA, 400 ml/l PEG 200; 3 μM compound; n = 0.46
[10] = system: Hum21 (DNA, G4) GGGTTAGGGTTAGGGTTAGGG; test: UV-vis absorption titration, Scatchard; settings: 150 mM KCl; 10 mM Tris-HCl pH 7.4, 1 mM Na2EDTA, 400 ml/l PEG 200; 3 μM compound; Ka undetected
[11] = system: ssDNA2 (DNA, single strand) TAGAGCACACCTGTCCGTG; test: UV-vis absorption; settings: 150 mM KCl; 10 mM Tris-HCl pH 7.4, 1 mM Na2EDTA, 400 ml/l PEG 200; 20 μM DNA
[12] = system: Hum69 (DNA, G4) GGGTTAGGGTTAGGGTTAGGGTTAGGGTTAGGGTTAGGGTTAGGGTTAGGGTTAGGGTTAGGGTTAGGG; test: UV melting at 295 nm; settings: 50 mM KCl; 10 mM Tris-HCl pH 7.4, 1 mM Na2EDTA, no PEG; 5 μM compound, 5 μM DNA; derived from two Tm
[13] = system: Oxy28 (DNA, G4) GGGGTTTTGGGGTTTTGGGGTTTGGGG; test: UV-vis absorption; settings: 150 mM KCl; 10 mM Tris-HCl pH 7.4, 1 mM Na2EDTA, 400 ml/l PEG 200; DNA up to 10:1 over compound
[14] = system: C-MYC (DNA, G4) TGAGGGTGGGAGGGTGGGAA; test: UV-vis absorption; settings: 150 mM KCl; 10 mM Tris-HCl pH 7.4, 1 mM Na2EDTA, 400 ml/l PEG 200; DNA up to 10:1 over compound
[15] = system: Hum63 (DNA, G4) GGGTTAGGGTTAGGGTTAGGGTTAGGGTTAGGGTTAGGGTTAGGGTTAGGGTTAGGGTTAGGG; test: UV melting at 295 nm; settings: 50 mM KCl; 10 mM Tris-HCl pH 7.4, 1 mM Na2EDTA, no PEG; 5 μM compound, 5 μM DNA; derived from two Tm
[16] = system: Hum57-M3 (DNA, G4) GGGTTAGGGTTAGGGTTAGGGTTGAGTGTGAGTGTAGGGTTAGGGTTAGGGTTAGGG; test: UV-vis absorption titration, Scatchard; settings: 150 mM KCl; 10 mM Tris-HCl pH 7.4, 1 mM Na2EDTA, 400 ml/l PEG 200; 3 μM compound; n = 0.50
[17] = system: Hum69 (DNA, G4) GGGTTAGGGTTAGGGTTAGGGTTAGGGTTAGGGTTAGGGTTAGGGTTAGGGTTAGGGTTAGGGTTAGGG; test: UV-vis absorption titration, Scatchard; settings: 150 mM KCl; 10 mM Tris-HCl pH 7.4, 1 mM Na2EDTA, 400 ml/l PEG 200; 3 μM compound; n = 0.52
[18] = system: Hum51 (DNA, G4) GGGTTAGGGTTAGGGTTAGGGTTAGGGTTAGGGTTAGGGTTAGGGTTAGGG; test: UV melting at 295 nm; settings: 50 mM KCl; 10 mM Tris-HCl pH 7.4, 1 mM Na2EDTA, no PEG; 5 μM compound, 5 μM DNA; derived from two Tm
[19] = system: M3Q (DNA, G4) GAGGGAGGGAGGGAGAGGGA; test: UV-vis absorption; settings: 150 mM KCl; 10 mM Tris-HCl pH 7.4, 1 mM Na2EDTA, 400 ml/l PEG 200; DNA up to 10:1 over compound
[20] = system: Hum63-M3 (DNA, G4) GGGTTAGGGTTAGGGTTAGGGTTGAGTGTGAGTGTAGGGTTAGGGTTAGGGTTAGGGTGTGAG; test: UV-vis absorption titration, Scatchard; settings: 150 mM KCl; 10 mM Tris-HCl pH 7.4, 1 mM Na2EDTA, 400 ml/l PEG 200; 3 μM compound; n = 0.50
[21] = system: KRAS (DNA, G4) AGGGCGGTGGGAAGAGGGAAGAGGGGGAGG; test: UV-vis absorption; settings: 150 mM KCl; 10 mM Tris-HCl pH 7.4, 1 mM Na2EDTA, 400 ml/l PEG 200; DNA up to 10:1 over compound
[22] = system: Hum57 (DNA, G4) GGGTTAGGGTTAGGGTTAGGGTTAGGGTTAGGGTTAGGGTTAGGGTTAGGGTTAGGG; test: UV-vis absorption titration, Scatchard; settings: 150 mM KCl; 10 mM Tris-HCl pH 7.4, 1 mM Na2EDTA, 400 ml/l PEG 200; 3 μM compound; n = 0.48
[23] = system: AT (DNA, duplex) ATATATATATAT; test: UV-vis absorption; settings: 150 mM KCl; 10 mM Tris-HCl pH 7.4, 1 mM Na2EDTA, 400 ml/l PEG 200; 20 μM DNA
[24] = system: Hum51 (DNA, G4) GGGTTAGGGTTAGGGTTAGGGTTAGGGTTAGGGTTAGGGTTAGGGTTAGGG; test: UV-vis absorption titration, Scatchard; settings: 150 mM KCl; 10 mM Tris-HCl pH 7.4, 1 mM Na2EDTA, 400 ml/l PEG 200; 3 μM compound; n = 0.50
[25] = system: Hum63-M2 (DNA, G4) GGGTTAGGGTTAGGGTTAGGGTTGAGTGTAGGGTTAGGGTTAGGGTTAGGGTGTGAGTGTGAG; test: UV-vis absorption titration, Scatchard; settings: 150 mM KCl; 10 mM Tris-HCl pH 7.4, 1 mM Na2EDTA, 400 ml/l PEG 200; 3 μM compound; n = 0.50
[26] = system: Hum57 (DNA, G4) GGGTTAGGGTTAGGGTTAGGGTTAGGGTTAGGGTTAGGGTTAGGGTTAGGGTTAGGG; test: UV melting at 295 nm; settings: 50 mM KCl; 10 mM Tris-HCl pH 7.4, 1 mM Na2EDTA, no PEG; 5 μM compound, 5 μM DNA; derived from two Tm
[27] = system: Hum21 (DNA, G4) GGGTTAGGGTTAGGGTTAGGG; test: UV melting at 295 nm; settings: 50 mM KCl; 10 mM Tris-HCl pH 7.4, 1 mM Na2EDTA, no PEG; 5 μM compound, 5 μM DNA; derived from two Tm
[28] = system: Hum51-M2 (DNA, G4) GGGTTAGGGTTAGGGTTAGGGTTGAGTGTAGGGTTAGGGTTAGGGTTAGGG; test: UV-vis absorption titration, Scatchard; settings: 150 mM KCl; 10 mM Tris-HCl pH 7.4, 1 mM Na2EDTA, 400 ml/l PEG 200; 3 μM compound; n = 0.46
[29] = system: Hum63-M1 (DNA, G4) GGGTTAGGGTTAGGGTTAGGGTTAGGGTTAGGGTTAGGGTTAGGGTGTGAGTGTGAGTGTGAG; test: UV-vis absorption titration, Scatchard; settings: 150 mM KCl; 10 mM Tris-HCl pH 7.4, 1 mM Na2EDTA, 400 ml/l PEG 200; 3 μM compound; n = 0.46

C[N+]1(CCOc2cccc(-c3c4nc(c(-c5cccc(OCC[N+]6(C)CCCCC6)c5)c5ccc([nH]5)c(-c5cccc(OCC[N+]6(C)CCCCC6)c5)c5nc(c(-c6cccc(OCC[N+]7(C)CCCCC7)c6)c6ccc3[nH]6)C=C5)C=C4)c2)CCCCC1
melting temperature shift (ΔTm) [1]: 9.1 °C
binding [2]: no
Ka [3]: 2.53e+06 M⁻¹
binding [4]: no
Ka [5]: 1.38e+06 M⁻¹
Ka [6]: 1.09e+06 M⁻¹
binding [7]: no
Ka [8]: 1.3e+06 M⁻¹
Ka [9]: 1.11e+06 M⁻¹
binding [10]: no
binding [11]: no
melting temperature shift (ΔTm) [12]: 6.6 °C
binding [13]: no
binding [14]: no
melting temperature shift (ΔTm) [15]: 8.9 °C
Ka [16]: 1.08e+06 M⁻¹
Ka [17]: 2.05e+06 M⁻¹
melting temperature shift (ΔT1/2) [18]: 8.0 °C
binding [19]: no
Ka [20]: 1.08e+06 M⁻¹
binding [21]: no
Ka [22]: 1.05e+06 M⁻¹
binding [23]: no
Ka [24]: 1.66e+06 M⁻¹
Ka [25]: 1.1e+06 M⁻¹
melting temperature shift (ΔTm) [26]: 9.2 °C
melting temperature shift (ΔTm) [27]: 0.4 °C
Ka [28]: 1.1e+06 M⁻¹
Ka [29]: 2.08e+06 M⁻¹
